The text below walks through data of ChEMBL document CHEMBL5724914, “Linking interpersonal differences in gut microbiota composition and drug biotransformation activity” (2024).

For data set [1] the following is noted: human gut metagenome, 24 h, 2 µM.
Data set [2] in a line: The drug is tested on WLS-310 corresponding to human gut metagenome with ENA study accession number: PRJEB37062 and ENA sample accession number: ERS12561785 for biotransformation under anaerobic condition. The drug concentrations were measured over 9 timepoints collected between 0 and 24 hours of incubation by liquid-chromatography-coupled mass spectrometry (LC–MS). The note with it: 2 µM.

Data set [3] is described as follows: The drug is tested on WLS-098 corresponding to human gut metagenome with ENA study accession number: PRJEB37062 and ENA sample accession number: ERS12561754 for biotransformation under anaerobic condition. The drug concentrations were measured over 9 timepoints collected between 0 and 24 hours of incubation by liquid-chromatography-coupled mass spectrometry (LC–MS). Conditions: 2 µM.

The nature of data set [4]: The drug is tested on WLS-006 corresponding to human gut metagenome with ENA study accession number: PRJEB37062 and ENA sample accession number: ERS12561741 for biotransformation under anaerobic condition. The drug concentrations were measured over 9 timepoints collected between 0 and 24 hours of incubation by liquid-chromatography-coupled mass spectrometry (LC–MS). The note with it: 2 µM.

The nature of data set [5]: The drug is tested on Z-008 corresponding to metagenome with ENA study accession number: PRJEB37062 and ENA sample accession number: ERS12561808 for biotransformation under anaerobic condition. The drug concentrations were measured over 9 timepoints collected between 0 and 24 hours of incubation by liquid-chromatography-coupled mass spectrometry (LC–MS). The note with it: 2 µM.

For data set [6] the following is noted: human gut metagenome, 24 h, 2 µM. The source holds these as a separate data set.
The conditions of data set [7]: human gut metagenome, 24 h, 2 µM. The source holds these as a separate data set.
A short description of data set [8]: The drug is tested on WLS-069 corresponding to human gut metagenome with ENA study accession number: PRJEB37062 and ENA sample accession number: ERS12561748 for biotransformation under anaerobic condition. The drug concentrations were measured over 9 timepoints collected between 0 and 24 hours of incubation by liquid-chromatography-coupled mass spectrometry (LC–MS). Conditions: 2 µM.

A short description of data set [9]: The drug is tested on Z-022 corresponding to mouse gut metagenome with ENA study accession number: PRJEB37062 and ENA sample accession number: ERS12561821 for biotransformation under anaerobic condition. The drug concentrations were measured over 9 timepoints collected between 0 and 24 hours of incubation by liquid-chromatography-coupled mass spectrometry (LC–MS). The note with it: 2 µM.

The conditions of data set [10]: human gut metagenome, 24 h, 2 µM. This is another data set of the same source.
Data set [11] is described as follows: The drug is tested on Z-018 corresponding to pig gut metagenome with ENA study accession number: PRJEB37062 and ENA sample accession number: ERS12561817 for biotransformation under anaerobic condition. The drug concentrations were measured over 9 timepoints collected between 0 and 24 hours of incubation by liquid-chromatography-coupled mass spectrometry (LC–MS). The note with it: 2 µM.

The nature of data set [12]: The drug is tested on Z-028 corresponding to mouse gut metagenome with ENA study accession number: PRJEB37062 and ENA sample accession number: ERS12561827 for biotransformation under anaerobic condition. The drug concentrations were measured over 9 timepoints collected between 0 and 24 hours of incubation by liquid-chromatography-coupled mass spectrometry (LC–MS). Conditions: 2 µM.

Data set [13] is described as follows: The drug is tested on WLS-038 corresponding to human gut metagenome with ENA study accession number: PRJEB37062 and ENA sample accession number: ERS12561745 for biotransformation under anaerobic condition. The drug concentrations were measured over 9 timepoints collected between 0 and 24 hours of incubation by liquid-chromatography-coupled mass spectrometry (LC–MS). Conditions: 2 µM.

A short description of data set [14]: The drug is tested on WLS-039 corresponding to human gut metagenome with ENA study accession number: PRJEB37062 and ENA sample accession number: ERS12561746 for biotransformation under anaerobic condition. The drug concentrations were measured over 9 timepoints collected between 0 and 24 hours of incubation by liquid-chromatography-coupled mass spectrometry (LC–MS). Conditions: 2 µM.

Data set [15] can be described thus: The drug is tested on Z-019 corresponding to rat gut metagenome with ENA study accession number: PRJEB37062 and ENA sample accession number: ERS12561818 for biotransformation under anaerobic condition. The drug concentrations were measured over 9 timepoints collected between 0 and 24 hours of incubation by liquid-chromatography-coupled mass spectrometry (LC–MS). Conditions: 2 µM.

A short description of data set [16]: The drug is tested on WLS-073 corresponding to human gut metagenome with ENA study accession number: PRJEB37062 and ENA sample accession number: ERS12561749 for biotransformation under anaerobic condition. The drug concentrations were measured over 9 timepoints collected between 0 and 24 hours of incubation by liquid-chromatography-coupled mass spectrometry (LC–MS). Conditions: 2 µM.

The conditions of data set [17]: human gut metagenome, 24 h, 2 µM. This is another data set of the same source.
The nature of data set [18]: The drug is tested on Z-020 corresponding to rabbit gut metagenome with ENA study accession number: PRJEB37062 and ENA sample accession number: ERS12561819 for biotransformation under anaerobic condition. The drug concentrations were measured over 9 timepoints collected between 0 and 24 hours of incubation by liquid-chromatography-coupled mass spectrometry (LC–MS). The note with it: 2 µM.

The conditions of data set [19]: human gut metagenome, 24 h, 2 µM. This is another data set of the same source.
Data set [20] can be described thus: The drug is tested on Z-029 corresponding to rat gut metagenome with ENA study accession number: PRJEB37062 and ENA sample accession number: ERS12561828 for biotransformation under anaerobic condition. The drug concentrations were measured over 9 timepoints collected between 0 and 24 hours of incubation by liquid-chromatography-coupled mass spectrometry (LC–MS). Conditions: 2 µM.
Note: call rule not given here.

Take `C=C[C@H]1CN2CC[C@H]1C[C@H]2[C@H](O)c1ccnc2ccc(OC)cc12.C=C[C@H]1CN2CC[C@H]1C[C@H]2[C@H](O)c1ccnc2ccc(OC)cc12.O.O.O=S(=O)(O)O` [QUININE SULFATE]: the “Bacterial Biotransformation” value in data set [1] was “Compound NOT metabolized”; in data set [2] it was “Compound metabolized”; in data set [3], “Compound metabolized”; in [4], “Compound metabolized”; in [5], “Compound NOT metabolized”; in data set [6], “Compound metabolized”. The “Bacterial Biotransformation” value in data set [7], in data set [8], in [9], in data set [10], in data set [11] and in data set [12] was “Compound NOT metabolized” throughout. For the same molecule, the “Bacterial Biotransformation” value in data set [13], in data set [14], in data set [15], in data set [16], in [17] and in data set [18] was “Compound NOT metabolized” throughout. Besides, the “Bacterial Biotransformation” value in data set [19] and in [20] was “Compound NOT metabolized” throughout.

For the molecule `O=C(NC(Cc1cc(=O)[nH]c2ccccc12)C(=O)O)c1ccc(Cl)cc1` (stereo not given) [REBAMIPIDE], the “Bacterial Biotransformation” value in [1] is on record as “Compound NOT metabolized”; in data set [2], “Compound NOT metabolized”; in data set [3], “Compound NOT metabolized”; in data set [4] it was “Compound NOT metabolized”; in data set [5], “Compound NOT metabolized”; in data set [6], “Compound metabolized”. Further, the “Bacterial Biotransformation” value in [7] is on record as “Compound NOT metabolized”; in data set [8], “Compound NOT metabolized”; in data set [9], “Compound NOT metabolized”; in data set [10] it was “Compound metabolized”; in [11] it was “Compound NOT metabolized”; in [12], “Compound NOT metabolized”. Besides, the “Bacterial Biotransformation” value in data set [13] is recorded as “Compound NOT metabolized”; in data set [14], “Compound NOT metabolized”; in data set [15] it was “Compound NOT metabolized”; in data set [16] it was “Compound NOT metabolized”; in data set [17] it was “Compound metabolized”; in data set [18], “Compound NOT metabolized”. Moreover, the “Bacterial Biotransformation” value in [19] and in data set [20] was “Compound NOT metabolized” throughout.

For the molecule `CCOc1cc(CC(=O)N[C@@H](CC(C)C)c2ccccc2N2CCCCC2)ccc1C(=O)O` [REPAGLINIDE], the “Bacterial Biotransformation” value in [1], in [2], in data set [3], in data set [4], in [5] and in data set [6] was “Compound metabolized” throughout. For the same molecule, the “Bacterial Biotransformation” value in data set [7] is “Compound metabolized”; in data set [8] it was “Compound metabolized”; in data set [9] it was “Compound metabolized”; in [10] it was “Compound metabolized”; in [11] it was “Compound NOT metabolized”; in [12] it was “Compound metabolized”. The “Bacterial Biotransformation” value is listed as “Compound metabolized” in data set [13]; “Compound metabolized” in data set [14]; “Compound NOT metabolized” in data set [15]; “Compound metabolized” in [16]; “Compound metabolized” in data set [17]; “Compound metabolized” in data set [18]. The “Bacterial Biotransformation” value in [19] and in data set [20] was “Compound NOT metabolized” each time.

For `CC(N)C12CC3CC(CC(C3)C1)C2` (stereo not given) [RIMANTADINE], the “Bacterial Biotransformation” value in data set [1], in data set [2], in data set [3], in data set [4], in data set [5] and in data set [6] was “Compound NOT metabolized” throughout. Also, the “Bacterial Biotransformation” value in data set [7] is reported as “Compound NOT metabolized”; in data set [8], “Compound NOT metabolized”; in data set [9], “Compound metabolized”; in data set [10] it was “Compound NOT metabolized”; in data set [11], “Compound NOT metabolized”; in [12] it was “Compound NOT metabolized”. Further, the “Bacterial Biotransformation” value in data set [13], in data set [14], in data set [15], in data set [16], in data set [17] and in data set [18] was “Compound NOT metabolized” in each case. Besides, the “Bacterial Biotransformation” value in [19] and in data set [20] was “Compound NOT metabolized” in each case.

In the case of `CCN(C)C(=O)Oc1cccc([C@H](C)N(C)C)c1.O=C(O)C(O)C(O)C(=O)O` [RIVASTIGMINE TARTRATE], the “Bacterial Biotransformation” value in data set [1], in data set [2], in [3], in [4], in data set [5] and in data set [6] was “Compound NOT metabolized” in each case. In addition, the “Bacterial Biotransformation” value in [7], in data set [8], in data set [9], in [10], in data set [11] and in data set [12] was “Compound NOT metabolized” in each case. For the same molecule, the “Bacterial Biotransformation” value in data set [13] is recorded as “Compound metabolized”; in data set [14] it was “Compound metabolized”; in data set [15], “Compound NOT metabolized”; in data set [16] it was “Compound NOT metabolized”; in data set [17], “Compound NOT metabolized”; in data set [18], “Compound NOT metabolized”. The “Bacterial Biotransformation” value in [19] and in [20] was “Compound NOT metabolized” in each case.
